Experimental data published in US20250304587A1, “WEE1 INHIBITOR, PREPARATION THEREFOR AND USE THEREOF” (JIANGSU TASLY DIYI PHARMACEUTICAL CO., LTD., priority 2022, published 2025).

Tests used:
Wee1 protein = Wee1 protein (Homo sapiens (Human), UniProt P30291); assay: TR-FRET binding of compound to Wee1 protein and Tracer 178; settings: Tracer 178, read-out: IC50, inhibitory activity against Wee1 kinase
Method: First, solutions of the compounds in different concentration gradients were prepared. The compounds were dissolved in DMSO and the compounds were diluted 4 folds with a total of 10 dose points and 2 parallel replicates for each concentration.
The IC50 for inhibition of enzyme activity by the compounds was then calculated using GraphPad Prism 6 and fitted with a log (inhibitor) vs. response-Variable slope mode. The fitting equation was: Y=Bottom+(Top−Bottom)/(1+10^((Log IC50−X)*HillSlope)), where Y represents the percentage of residual enzyme activity known and X represents the known concentration of compound after the logarithm.

BxPC3 cells = assay: Cell Titer-Glo anti-proliferation, BxPC3 cells; format: cell-based, human; settings: 3 days, read-out: Anti-proliferative activity BxPC3 (IC50 class)
How it was run: (§1)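 Each line was exposed to graded compound concentrations for 3 days at 37 °C, 5% CO2, with final DMSO at 0.2%. Viability was measured by Cell Titer-Glo luminescence, with untreated cells as the maximum and medium as the minimum signal. IC50 came from a variable-slope log(inhibitor)-response fit.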

HT-29 cells = assay: Cell Titer-Glo anti-proliferation, HT-29 cells; format: cell-based, human; settings: 3 days, read-out: Anti-proliferative activity HT-29 (IC50 class)
How it was run: as §1

OVCAR-3 cells = assay: Cell Titer-Glo anti-proliferation, OVCAR-3 cells; format: cell-based; settings: 3 days, read-out: Anti-proliferative activity OVCAR-3 (IC50 class)
How it was run: as §1

HUVEC cells = assay: Cell Titer-Glo anti-proliferation, normal cells HUVEC; format: cell-based
Method: (§2) Compound solutions of different concentration gradients were prepared. […] The cell growth group without compound was used as a positive control (maximum signal control) and the medium was used as a negative control (minimum signal control), while ensuring that the final level of DMSO in each reaction well was 0.2%. After removing the medium from the 384-well plate, 25 μl of the configured compound at different concentrations was transferred into the well plate and the compound and cells were incubated in the cell incubator at 37° C. with 5% CO2 for 3 days.
(§3) The 384-well plates were removed from the cell incubator and allowed to equilibrate for 1 h to room temperature. 25 μl of Cell Titer-Glo assay was added to each well, lysed on a shaker for 2 min and then read out (Luminescence) using a BMG PHERAStar after 10 min incubation. Calculate the inhibition rate from the luminescence signal.
(§4) to calculate the rate of inhibition of the cells by different concentrations of the compounds. The IC50 of the compound on cell activity inhibition was calculated by fitting a log(inhibitor) vs. response-Variable slope model to GraphPad Prism 6. The fitted equation was: Y=Bottom+(Top-Bottom)/(1+10^((Log IC50−X)*HillSlope)), where Y represents the rate of inhibition and X represents the concentration of the known compound after Log.
(§5) B. Evaluation of the Anti-Proliferative Effect of Compounds by the Cell Titer-Glo Method on Normal Cells HUVEC and HK2.
(§6) The test method is the same as the anti-proliferative activity evaluation of tumor cells.

HK2 cells = assay: Cell Titer-Glo anti-proliferation, normal cells HK2; format: cell-based
Method: as §2, §3, §4, §5, §6

[1] = Metabolic stability in liver microsomes, mouse; format: in vitro ADME
Method: (§7) Test Example 3: Evaluation of the Metabolic Stability of Liver Microsomes (Mouse and Human) In Vitro Microsomes were taken out from the −80° C. refrigerator, rapidly melted in a 37° C. water bath and placed on ice until ready to use. The test article was diluted with DMSO to prepare a 10 mM stock solution, and then diluted with acetonitrile to a 0.5 mM secondary stock solution. […] NADPH was diluted with Buffer C to a working solution of 6 mM for the starter solution. An acetonitrile solution containing an internal standard was prepared as the precipitant, and Verapamil-HCl was chosen as the internal standard at a concentration of 4 ng/ml. […] A separate plate with pointed bottom wells, noted as a precipitation plate, was added with 135 μL precipitant per well; 0 h samples were transferred to the plate after 10 min incubation and 15 μL of starter solution was added; the plate was placed on ice before centrifugation. The diluted starter solution was added in sufficient quantity to the dispensing plate to facilitate the multichannel pipette aspiration operation. The reaction was carried out on a warm incubation shaker and 15 μL of starter solution/sample is added to the plate using a multichannel pipette. The reaction was mixed with a slight shake to initiate the reaction, which was accurately timed and recorded using a timer; After the reaction time had elapsed, all the solution in the plate was aspirated using the multichannel pipette and added to the precipitation plate to terminate the reaction at that point in time. After all reactions had been terminated, the plates were shaken for ten minutes on a plate shaker at 600 rpm to precipitate the protein. The plate was centrifuged at 4° C. for 15 minutes at maximum rpm. 80 μL of supernatant was taken, 320 μL of pure water was added and mixed for LC-MS analysis.

[2] = Metabolic stability in liver microsomes, human; format: in vitro ADME
Method: as §7

[3] = Metabolic stability in liver microsomes, rat; format: in vitro ADME
Method: as §7, with “Microsomes” for “Test Example 3: Evaluation of the Metabolic Stability of Liver Microsomes (Mouse and Human) In Vitro Microsomes”

[4] = Metabolic stability in liver microsomes, dog; format: in vitro ADME
Method: as §7, with “Microsomes” for “Test Example 3: Evaluation of the Metabolic Stability of Liver Microsomes (Mouse and Human) In Vitro Microsomes”

[5] = Metabolic stability in liver microsomes, monkey; format: in vitro ADME
Method: as §7, with “Microsomes” for “Test Example 3: Evaluation of the Metabolic Stability of Liver Microsomes (Mouse and Human) In Vitro Microsomes”

plasma protein [6] = assay: Plasma protein binding (equilibrium dialysis), rat; format: in vitro ADME; settings: 1 μM, 5 h dialysis
CYP3A4 = CYP3A4 (Homo sapiens (Human), UniProt P08684); assay: Cytochrome P450 inhibition (fluorescence), CYP3A4; format: in vitro ADME; settings: read-out: IC50 CYP3A4
Method: (§8) Enzymatic experiments were performed to quantify the inhibition of CYP450 enzyme activity of each isoform of CYP450 by small molecule inhibitors through fluorescence generated by the oxidation of the substrate by cytochrome P450. […] The Solution B composition used for the experiment was: 40 U/mL G6PDH (Sigma-aldrich, Cat #G6378). The substrate mix was 0.05× Solution A, 0.01× Solution B, 50 mM Potassium Phosphate, 0.01 mM BOMCC/0.01 mM EOMCC/0.001 mM DBOMF. […] The data were analyzed and processed using GraphPad Prism 6 software to obtain IC50 values.

CYP1A2 = CYP1A2 (Homo sapiens (Human), UniProt P05177); assay: Cytochrome P450 inhibition (fluorescence), CYP1A2; format: in vitro ADME
Method: as §8

CYP2C9 = CYP2C9 (Homo sapiens (Human), UniProt P11712); assay: Cytochrome P450 inhibition (fluorescence), CYP2C9; format: in vitro ADME; settings: read-out: IC50 CYP2C9
Method: as §8

CYP2D6 = CYP2D6 (Homo sapiens (Human), UniProt P10635); assay: Cytochrome P450 inhibition (fluorescence), CYP2D6; format: in vitro ADME; settings: read-out: IC50 CYP2D6
Method: as §8

CYP2C8 = CYP2C8 (Homo sapiens (Human), UniProt P10632); assay: Cytochrome P450 inhibition (fluorescence), CYP2C8; format: in vitro ADME; settings: read-out: IC50 CYP2C8
Method: as §8

plasma protein [7] = assay: Plasma protein binding (equilibrium dialysis), mouse; settings: mouse plasma, 1 μM, 5 h dialysis
hERG potassium channel = hERG potassium channel (Homo sapiens (Human), UniProt Q12809); assay: hERG potassium channel inhibition, patch clamp in CHO hERG cells
Chain of hERG potassium channel (Q12809 whole entry): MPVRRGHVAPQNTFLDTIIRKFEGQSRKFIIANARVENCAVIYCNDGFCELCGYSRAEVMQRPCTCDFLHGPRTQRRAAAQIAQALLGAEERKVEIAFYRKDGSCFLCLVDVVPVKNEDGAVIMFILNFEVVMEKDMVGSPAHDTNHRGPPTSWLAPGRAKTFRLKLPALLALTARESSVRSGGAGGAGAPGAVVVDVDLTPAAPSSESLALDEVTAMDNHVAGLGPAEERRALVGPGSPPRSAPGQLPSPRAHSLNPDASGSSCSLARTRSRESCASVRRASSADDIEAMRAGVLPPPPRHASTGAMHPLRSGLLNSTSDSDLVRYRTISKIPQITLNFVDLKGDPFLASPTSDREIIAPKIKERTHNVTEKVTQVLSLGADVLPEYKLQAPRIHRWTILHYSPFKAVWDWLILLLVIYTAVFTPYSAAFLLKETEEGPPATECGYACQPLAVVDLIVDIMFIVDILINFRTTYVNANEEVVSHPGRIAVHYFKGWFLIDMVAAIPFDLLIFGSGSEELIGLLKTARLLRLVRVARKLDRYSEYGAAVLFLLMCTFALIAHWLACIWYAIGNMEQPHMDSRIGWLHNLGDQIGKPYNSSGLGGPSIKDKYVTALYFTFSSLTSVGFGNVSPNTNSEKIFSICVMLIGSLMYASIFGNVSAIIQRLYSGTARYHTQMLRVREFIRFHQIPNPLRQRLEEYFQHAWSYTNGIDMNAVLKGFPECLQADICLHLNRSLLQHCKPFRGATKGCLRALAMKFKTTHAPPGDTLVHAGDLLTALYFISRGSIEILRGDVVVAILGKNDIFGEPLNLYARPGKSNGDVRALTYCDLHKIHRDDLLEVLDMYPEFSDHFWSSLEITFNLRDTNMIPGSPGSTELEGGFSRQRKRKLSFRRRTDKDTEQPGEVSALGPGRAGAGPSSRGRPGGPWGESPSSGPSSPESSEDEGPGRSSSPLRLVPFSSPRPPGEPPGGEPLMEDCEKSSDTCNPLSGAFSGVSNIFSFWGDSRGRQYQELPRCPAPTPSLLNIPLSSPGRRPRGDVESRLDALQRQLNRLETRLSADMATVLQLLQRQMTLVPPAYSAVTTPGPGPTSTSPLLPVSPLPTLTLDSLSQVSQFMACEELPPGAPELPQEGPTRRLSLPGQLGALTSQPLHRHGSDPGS
Method: The cell line used for the patch clamp assay was a 10th generation CHO cell overexpressing hERG potassium channel cDNA. CHO hERG cells were cultured in Petri dishes or flasks at 37° C. in a 5% CO2 incubator. Cells were dropped onto circular slides 24-48 hours prior to electrophysiological experiments and cultured in cell culture medium and used for experiments after the cells had been adhered.
Cell culture medium (purchased from Invitrogen) Composition: • Ham's F12 medium • 10% (v/v) heat inactivated FBS • 100 μg/ml Hygromycin B (thaumatin) • 100 μg/ml Geneticin (Genomycin, G418)
Compound powders are dissolved in the extracellular solution and are subjected to a routine 5 to 10 minute sonication and shaking to ensure complete dissolution of the compound.
The final concentrations of compounds used for electrophysiological assays were 5, 20 μM and the final concentration of DMSO was 0.1%.
Cell membrane currents were recorded using a HEKA EPC-10 USB patch-clamp amplifier (HEKA Elektronik, Germany). • 1) A coverslip with a large number of uniformly growing individual CHO hERG cells on its surface was taken. Place in a continuous recording cell on an inverted microscope, perfused with extracellular fluid (approximately 1 ml per minute) and recorded continuously, waiting for the current to stabilize. • 2) Record HERG channel currents for individual cells using standard whole cell recording mode. The membrane voltage is first clamped at −80 mV and the cell is given a +20 mV stimulus for 5 s to activate the hERG potassium channel, then repolarized to −50 mV for 5 s to generate an outward tail current, which is continuously perfused until the current is stable, at which point the peak tail current is the control current value. • 3) The extracellular solution containing the drug to be tested was then perfused and recorded until the inhibitory effect of the drug on the hERG current reached a steady state, at which point the peak tail current was the post-drug current value. • 4) The cells are again perfused with the extracellular solution until the hERG current returns to or approaches the level prior to the addition of the drug, then the perfusion can be continued to test other concentrations or drugs. One or more compound or drug concentrations may be tested on each cell. • 5) Cisapride (C4740-10 mg, Sigma) is used as a positive control in the experiment to ensure that the cells used respond properly.

Chain of CYP2D6 (P10635 whole entry): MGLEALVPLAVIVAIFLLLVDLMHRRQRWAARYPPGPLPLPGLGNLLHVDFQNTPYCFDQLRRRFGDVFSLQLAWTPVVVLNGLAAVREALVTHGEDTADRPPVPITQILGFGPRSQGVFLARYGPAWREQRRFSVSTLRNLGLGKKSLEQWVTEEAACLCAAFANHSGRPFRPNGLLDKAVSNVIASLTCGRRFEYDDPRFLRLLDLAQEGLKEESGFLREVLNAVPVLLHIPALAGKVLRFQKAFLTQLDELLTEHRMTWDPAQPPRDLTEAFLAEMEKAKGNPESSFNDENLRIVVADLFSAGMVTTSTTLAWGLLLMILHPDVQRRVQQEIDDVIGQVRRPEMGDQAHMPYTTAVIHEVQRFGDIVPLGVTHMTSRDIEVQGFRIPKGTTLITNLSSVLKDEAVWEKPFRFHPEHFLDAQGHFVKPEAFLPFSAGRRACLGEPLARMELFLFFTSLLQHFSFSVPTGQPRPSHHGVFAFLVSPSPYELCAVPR
Chain of CYP2C9 (P11712 whole entry): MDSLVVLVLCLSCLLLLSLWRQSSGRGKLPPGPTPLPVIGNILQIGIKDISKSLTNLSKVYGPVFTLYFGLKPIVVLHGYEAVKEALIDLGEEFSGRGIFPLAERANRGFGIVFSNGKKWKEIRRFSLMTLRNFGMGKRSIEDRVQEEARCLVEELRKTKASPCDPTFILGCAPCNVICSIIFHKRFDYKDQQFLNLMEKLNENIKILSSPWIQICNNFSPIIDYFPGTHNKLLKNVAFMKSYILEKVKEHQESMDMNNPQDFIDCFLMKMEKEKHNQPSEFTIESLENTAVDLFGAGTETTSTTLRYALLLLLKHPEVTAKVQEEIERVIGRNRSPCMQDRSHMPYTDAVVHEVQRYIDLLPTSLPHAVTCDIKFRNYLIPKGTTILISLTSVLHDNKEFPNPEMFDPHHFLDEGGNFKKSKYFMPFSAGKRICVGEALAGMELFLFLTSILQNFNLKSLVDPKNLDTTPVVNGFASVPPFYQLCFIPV
Chain of CYP3A4 (P08684 whole entry, canonical isoform): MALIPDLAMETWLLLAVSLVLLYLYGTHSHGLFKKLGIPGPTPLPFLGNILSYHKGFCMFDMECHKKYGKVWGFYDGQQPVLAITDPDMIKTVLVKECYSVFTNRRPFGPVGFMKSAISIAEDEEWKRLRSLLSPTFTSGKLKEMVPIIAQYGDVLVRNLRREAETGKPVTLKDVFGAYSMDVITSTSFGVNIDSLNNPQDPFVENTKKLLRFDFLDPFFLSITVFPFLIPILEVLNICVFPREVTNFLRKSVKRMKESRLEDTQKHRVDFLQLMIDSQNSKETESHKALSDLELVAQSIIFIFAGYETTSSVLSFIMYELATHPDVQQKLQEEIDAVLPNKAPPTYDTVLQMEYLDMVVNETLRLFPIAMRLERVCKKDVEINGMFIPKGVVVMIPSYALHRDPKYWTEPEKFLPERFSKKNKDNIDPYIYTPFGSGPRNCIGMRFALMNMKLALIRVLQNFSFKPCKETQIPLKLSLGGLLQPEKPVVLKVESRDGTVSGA
Chain of CYP1A2 (P05177 whole entry): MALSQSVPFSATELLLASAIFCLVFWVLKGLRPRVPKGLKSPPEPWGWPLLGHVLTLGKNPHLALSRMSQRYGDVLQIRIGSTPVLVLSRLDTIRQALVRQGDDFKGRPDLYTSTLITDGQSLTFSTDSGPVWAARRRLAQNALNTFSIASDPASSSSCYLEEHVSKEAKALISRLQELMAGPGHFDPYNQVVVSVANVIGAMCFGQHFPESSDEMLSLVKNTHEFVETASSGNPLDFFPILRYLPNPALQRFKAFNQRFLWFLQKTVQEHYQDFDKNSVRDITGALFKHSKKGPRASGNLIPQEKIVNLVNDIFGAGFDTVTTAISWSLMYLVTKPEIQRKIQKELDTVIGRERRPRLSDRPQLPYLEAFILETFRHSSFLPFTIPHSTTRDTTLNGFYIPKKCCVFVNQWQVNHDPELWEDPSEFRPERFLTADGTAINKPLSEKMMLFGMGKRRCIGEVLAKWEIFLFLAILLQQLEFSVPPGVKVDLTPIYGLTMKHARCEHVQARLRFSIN
Chain of CYP2C8 (P10632 whole entry): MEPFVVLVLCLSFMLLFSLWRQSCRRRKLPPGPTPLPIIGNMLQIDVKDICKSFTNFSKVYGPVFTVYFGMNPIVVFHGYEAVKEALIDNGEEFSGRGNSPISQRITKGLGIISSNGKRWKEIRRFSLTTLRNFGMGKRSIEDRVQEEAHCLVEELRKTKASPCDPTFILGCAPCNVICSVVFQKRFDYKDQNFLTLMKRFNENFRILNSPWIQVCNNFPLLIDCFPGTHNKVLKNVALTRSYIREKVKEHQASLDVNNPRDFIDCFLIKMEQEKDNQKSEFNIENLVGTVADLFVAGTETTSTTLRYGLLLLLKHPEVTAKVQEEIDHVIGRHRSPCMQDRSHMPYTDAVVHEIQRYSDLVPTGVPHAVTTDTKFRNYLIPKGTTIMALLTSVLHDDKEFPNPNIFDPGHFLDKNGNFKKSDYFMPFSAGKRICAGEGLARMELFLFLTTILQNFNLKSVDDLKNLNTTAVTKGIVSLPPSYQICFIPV
Chain of Wee1 protein (P30291 whole entry): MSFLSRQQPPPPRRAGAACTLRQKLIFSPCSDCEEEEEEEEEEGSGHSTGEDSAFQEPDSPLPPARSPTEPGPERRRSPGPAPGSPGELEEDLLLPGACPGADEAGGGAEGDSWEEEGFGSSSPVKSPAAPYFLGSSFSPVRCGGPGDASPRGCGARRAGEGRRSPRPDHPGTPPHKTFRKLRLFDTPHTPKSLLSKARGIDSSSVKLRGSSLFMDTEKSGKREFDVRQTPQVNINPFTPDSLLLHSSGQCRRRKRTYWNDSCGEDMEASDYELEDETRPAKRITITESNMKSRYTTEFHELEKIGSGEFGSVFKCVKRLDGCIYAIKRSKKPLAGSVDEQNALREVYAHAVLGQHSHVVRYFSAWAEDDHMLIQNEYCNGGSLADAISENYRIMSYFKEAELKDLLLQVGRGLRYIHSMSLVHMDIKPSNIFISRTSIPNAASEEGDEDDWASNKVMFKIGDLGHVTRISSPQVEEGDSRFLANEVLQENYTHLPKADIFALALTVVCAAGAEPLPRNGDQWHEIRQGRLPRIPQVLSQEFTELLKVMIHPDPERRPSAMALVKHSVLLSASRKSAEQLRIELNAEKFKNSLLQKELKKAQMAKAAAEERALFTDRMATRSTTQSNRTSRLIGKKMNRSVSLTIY

SMILES | IC50 (Wee1 protein) | IC50 (BxPC3 cells) | IC50 (HT-29 cells) | IC50 (OVCAR-3 cells) | IC50 (HUVEC cells) | IC50 (HK2 cells) | T1/2 liver microsomes Mouse [1] | T1/2 liver microsomes Human [2] | T1/2 liver microsomes Rat [3] | T1/2 liver microsomes Dog [4] | T1/2 liver microsomes Monkey [5] | Plasma Protein binding (PPB) Rat (plasma protein [6]) | IC50 (CYP3A4) | IC50 (CYP1A2) | IC50 (CYP2C9) | IC50 (CYP2D6) | IC50 (CYP2C8) | Plasma Protein binding (PPB) Mouse (plasma protein [7]) | hERG Inhibition (hERG potassium channel; test concentration 5 μM) | hERG Inhibition (hERG potassium channel; test concentration 20 μM)
C=CCn1c(=O)c2cnc(Nc3ccc(N4CC5CC(C4)N5C)cc3)nc2n1-c1ccc2c(n1)[C@@](C)(O)C1(CC2)CC1 [Compound 7a] | 0.005 to 0.01 µM | 0.1 to 1 µM | 0.1 to 1 µM | 0.1 to 1 µM | > 10 µM | 0.67 µM | 1.209 h | 1.057 h | 0.357 h | 1.541 h | 0.2625 h | 94.82% | > 10 µM | > 10 µM | > 10 µM | > 10 µM | > 10 µM | 97.21% |  | 
C=CCn1c(=O)c2cnc(Nc3ccc(N4CCC5(CCN(C)CC5)CC4)cc3)nc2n1-c1ccc2c(n1)[C@](C)(O)C1(CC2)CC1 (racemic) [Compound 44] |  | 0.1 to 1 µM | 0.1 to 1 µM | 0.1 to 1 µM |  |  | 1.05 h | 1.296 h | >2 h | 0.7135 h | 0.5015 h | 96.98% | > 10 µM | > 10 µM | > 10 µM | > 10 µM | > 10 µM | 98.46% | 77.68 ± 4.16% | 91.56 ± 2.72%
